Ends that are not written are not given here.

Here are results for one sequence from paper PMC8538057, “Direct Delivery of ANA-TA9, a Peptide Capable of Aβ Hydrolysis, to the Brain by Intranasal Administration” (Pharmaceutics, 2021).

A short description of data set [1]: Degradation of ANA-TA9 in the rat nasal cavity (nasal perfusion). The data set is classed as in vivo. As to conditions: 15 mL PBS at 10 μg/mL, 120 min, LC/MS, mean of three experiments. On the procedure:
Polyethylene tubing was inserted into the rat esophagus and trachea according to the method of Hirai et al.. Briefly, under anesthesia with the anesthetic mixture described in Section 2.3.2, the trachea was cannulated with polyethylene tubing, and another tube was inserted from the esophagus to the posterior part of the nasal cavity. The nasopalatine was closed with surgical adhesive. A solution of ANA-TA9 (15 mL PBS at 10 μg/mL) was perfused from the esophagus through the nasal cavity using a peristaltic pump (SJ-1211-H; ATTO, Tokyo, Japan). The perfusing solution of ANA-TA9 was sampled at predetermined times. The ANA-TA9 concentration in the perfusate was measured by liquid chromatography-mass spectrometry (LC/MS) after the same pretreatment as that of the plasma described in Section 2.4.2.

Data set [2] in a line: Storage stability of ANA-TA9 at −40 °C (preliminary study). The data set is classed as physicochemical. As to conditions: storage at −40 °C (plasma samples). Here is the method: The rats were anesthetized through i.p. administration of a mixture of medetomidine (0.15 mg/kg body weight), midazolam (2 mg/kg body weight), and butorphanol (2.5 mg/kg body weight). The right femoral artery was cannulated with polyethylene tubing. ANA-TA9 was injected into the left femoral vein of 3 rats at a dose of 2 mg (200 μL of a 10 mg/mL PBS solution). Those 3 rats nasally received the same dose of ANA-TA9 (20 μL of a 100 mg/mL PBS solution) under anesthesia. For nasal administration, a micropipette was used. After i.n. administration, the animals were kept conscious in a rat cage (KN-326-III; Natsume, Tokyo, Japan) throughout the experiment after recovery from anesthesia. The PBS solution of ANA-TA9 (12 mg/mL) was infused intravenously for 10 min at a 25 µL/min flow rate. The infused dose was 3 mg/rat. At the appropriate time intervals after administration, blood samples were taken, heparinized, and immediately cooled down on ice, followed by centrifugation at 15,000 rpm for 5 min to obtain the plasma. The plasma samples were stored at −40 °C until the assay. In the preliminary study, it was confirmed that ANA-TA9 stored at −40 °C is stable for at least 2 weeks.

In the case of SKGQAYRMI [ANA-TA9], the “concentration in the nasal perfusate, % of the initial concentration” value in data set [1] worked out at 54%. Also, in data set [2], the “time for which ANA-TA9 stored at −40 °C is stable” value was “at least 2 weeks”.
